From patent US8222241B2, “Use of dimiracetam in the treatment of chronic pain” (priority 2007, dated 2012)
Where two headings read alike, the source gives them in different places.

Tests used:
ddC-induced neuropathy [1] = experiment: ddC-induced neuropathy, paw pressure test; type: in vivo, Sprague Dawley rats; conditions: 300 mg/kg orally
Description: (§1) Adult male Sprague Dawley rats (150-200 g, supplier Harlan) were treated by intravenous route with a single administration of 25 mg/kg of nucleoside reverse transcriptase inhibitors ddC (2′,3′-dideoxycytidine) or d4T (2′,3′-didehydro-3′-deoxythymidine). Administration of these anti-HIV drugs induced a marked allodynic response to a mechanical stimulus (Joseph E. K. 2004, Pain 107:147-158). The maximum reduction of the paw pressure threshold is developed between day 5 and day 10 after injection. The test was performed on day 10.
Mechanical hyperalgesia in rats (male adult Sprague Dawley rats, 150-200 g, supplier Harlan) was determined using the paw pressure test. The nociceptive threshold was determined with an analgesimeter (Ugo Basile, Italy), exerting a force that increases at constant rate (32 g/s) according to the method described by Leighton G. E. 1988, Br. J. Pharmacol. 93:553-560. The stimulus causing paw withdrawal was evaluated before and at different times after treatment. Results represent the mean of mechanical thresholds expressed as grams. […]
Dimiracetam is a racemic compound; the two corresponding enantiomers were synthesized and separately tested in the ddC-induced neuropathy model. The two compounds were administered orally at doses of 150 and 300 mg/kg and their antihyperalgesic activity was evaluated with the paw pressure test.

[2] = test system: MIA-induced osteoarthritic pain; experiment: MIA-induced osteoarthritic pain in rats, paw pressure test; type: in vivo, Sprague Dawley rats
Description: Osteoarthritis was induced by a single administration of 2 mg (in a volume of 25 μl) of sodium 2-iodoacetate into the left knee joint of anaesthetized rats (male adult Sprague Dawley rats, 150-200 g, supplier Harlan) (Fernihough J. 2004, Pain 112:83-93). This treatment induces the progressive degeneration of the joint and the development of hyperalgesia, mimicking at the histological and behavioral levels what observed in humans. Pharmacological test was performed 7 days after treatment.
Mechanical hyperalgesia in rats (male adult Sprague Dawley rats, 150-200 g, supplier Harlan) was determined using the paw pressure test. The nociceptive threshold was determined with an analgesimeter (Ugo Basile, Italy), exerting a force that increases at constant rate (32 g/s) according to the method described by Leighton G. E. 1988, Br. J. Pharmacol. 93:553-560. The stimulus causing paw withdrawal was evaluated before and at different times after treatment. Results represent the mean of mechanical thresholds expressed as grams. To avoid any possible damage to the animal paw the maximum applied force was fixed at 240 g.

[3] = Rotarod/ataxia test in rats; conditions: rat, in vivo, po
Description: (§2) Neurological deficits were evaluated by the inability of the rats to remain on the rotating rod (10 rpm) for the test period.

rats motor coordination = experiment: Motor coordination in rats (rotarod); type: in vivo, Sprague Dawley rats
Description: The rotarod test allows the evaluation of the effects of a compound on motor coordination. Adult male Sprague Dawley rats (200-220 g, supplier Harlan, Milan) were placed on a plastic rod 6 cm in diameter and 35 cm in length, rotating at constant speed (16 rpm) at a height of 25 cm. The rod is divided in 4 equal sections, thus up to 4 animals may be tested simultaneously. The animals were required to walk against the motion of the rotating drum over 30 seconds. The time taken to fall off the rotarod was recorded as number of falls in 30 seconds, following the method of Vaught et al. 1985, Neuropharmacology 24:211-216. In each experiment motor coordination is measured before (pre-test) and after administration of the tested compound. Rats scoring less than 3 and more than 6 falls in the pretest are rejected.

rats [4] = experiment: Rotarod/ataxia test in rats; conditions: p.o., rotating rod 10 rpm
Description: as §2

mice = experiment: Hole board test in mice; type: in vivo, Swiss Webster mice; conditions: 30 min after oral administration
Description: The hole board test allows to study the behavior of rodents when confronted with a new environment (Boissier J R 1964, Therapie 19:571-583). The test enables to evaluate the initial exploratory activity of the animal and its possible variations induced by drug administration.
The hole board test uses a 40 cm square plane with 16 flush-mounted cylindrical holes (diameter 3 cm) distributed 4 by 4 in an equidistant, grid-like manner. Mice (male Swiss Webster mice weighing 25-30 g, supplier Morini) are placed one by one in the center of the board and allowed to move freely, each for a period of 5 min. Two photoelectric beams, crossing the plane from mid-point to mid-point of opposite sides, and thus dividing the plane into four equal quadrants, automatically record the movements of the animals on the plane surface. Miniature photoelectric cells in each of the 16 holes record the exploration of the holes (head plunging activity) by the mice.

[5] = test system: oxaliplatin-induced neuropathy; experiment: Oxaliplatin-induced neuropathy in rats, paw pressure test; type: in vivo, Sprague-Dawley rats; conditions: 300 mg/kg p.o. once a day
Description: Paw pressure test was performed 4 days after the last injection (Marchand F. et al. 2003, Brain Res. 980:117-120). • Taxol: taxol neuropathy was induced by intraperitoneal administration of 0.5 mg/kg once a day, on days 1, 3, 5 and 8. […] The pharmacological test was performed 14-18 days after the last taxol injection (Polomano R. C. et al. 2001, Pain 94:293-304). • Oxaliplatin: 2.4 mg/kg were injected by intraperitoneal route for 5 consecutive days followed by 2 days suspension (one cycle). A total of 3 cycles was performed, reaching a cumulative dose of 36 mg/kg (Cavaletti G. 2001, Eur. J. Cancer 37:2457-2463). The test was performed 48 h after the last oxaliplatin injection. 1.2 Antiviral-Induced Neuropathy […] The nociceptive threshold was determined with an analgesimeter (Ugo Basile, Italy), exerting a force that increases at constant rate (32 g/s) according to the method described by Leighton G. E. 1988, Br. J. Pharmacol. 93:553-560. The stimulus causing paw withdrawal was evaluated before and at different times after treatment. Results represent the mean of mechanical thresholds expressed as grams. To avoid any possible damage to the animal paw the maximum applied force was fixed at 240 g. The effect of […] evaluated in the oxaliplatin-induced neuropathy model after repeated administration with the paw pressure test.

ddC-induced neuropathy [6] = experiment: ddC-induced (antiviral-induced) neuropathy, von Frey test; type: in vivo, Sprague Dawley rats; conditions: 100 mg/kg
Description: as §1
Rats (male adult Sprague Dawley rats, 150-200 g, supplier Harlan) were placed in a chamber with a mesh metal floor covered by a plastic dome that enabled the animals to walk freely, but not to jump. The mechanical stimulus was delivered in the mid-plantar skin of left hind paw using an electronic von Frey apparatus. The cut-off was fixed at 50 g, while the increasing force rate (ramp duration) was settled at 20 sec.

rats [7] = experiment: Irwin test in rats; type: in vivo, Sprague Dawley rats
Description: To verify if the administration of the compound may induce centrally mediated side effects, adult male Sprague Dawley rats (150-200 g, supplier Harlan) were treated with dimiracetam by subcutaneous and oral routes and monitored according to the “Irwin test” protocol (Irwin 1968, Psychopharmacologia 13:222-257), a systematic and quantitative procedure for assessing the behavioral and physiological modifications induced in animals by the drug treatment.
Rats were constantly monitored for 30 min after administration. Monitoring was iterated every morning at 9 a.m. for 4 days after administration.

Sprague Dawley rats [8] = conditions: rat, in vivo, 3000 mg/kg
Sprague Dawley rats [9] = conditions: rat, in vivo, po, 2500 mg/kg/day
Cynomolgus monkeys = conditions: cynomolgus monkey, in vivo, po, 2000 mg/kg/day
[10] = oral doses greater than 10 mg/kg (J. Med. Chem., 1993, 36:4214-4220); cited from earlier work
[11] = 150 mg/kg, 15-30 min after administration

SMILES: O=C1CN2C(=O)CC[C@@H]2N1 [(R)-dimiracetam]
- antihyperalgesic activity (paw pressure mechanical threshold) (ddC-induced neuropathy [1]; 15-45 min after administration): significant reduction of the pain mechanical threshold
- reversal of MIA-induced hyperalgesia (paw pressure test) [2, 11]: statistically significant effect
- reversal of MIA-induced hyperalgesia (paw pressure test) ([2]; 45 min after treatment, dose not restated): still statistically significant

SMILES: CC(C)C[C@H](CN)CC(=O)O [pregabalin]
- TD50 [3]: 536 mg/kg

SMILES: N#Cc1cccc(N2C(=O)CN3C(=O)CCC32)c1 (stereo not shown) [I-(3-cyanophenyl)-tetrahydropyrrolo[1,2-a]imidazole-2,5-dione]
- dose from which the number of falls is increased (rotarod) (rats motor coordination; rat, in vivo): 300 mg/kg
- motor coordination (number of falls in 30 sec, rotarod) (rats motor coordination; starting from the dose of 300 mg/kg): significantly altered animals motor coordination

SMILES: O=C1CN2C(=O)CC[C@H]2N1 (single isomer, unassigned) [(S) enantiomer]
- antihyperalgesic activity (paw pressure mechanical threshold) (ddC-induced neuropathy [1]; 15 min after administration): significant effect

SMILES: NCC1(CC(=O)O)CCCCC1 [Gabapentin, gabapentin, reference compound]
- TD16 (dose causing 16% of fallen rats) (rats [4]): 1000 mg/kg
- curiosity (number of head plungings) (mice; 1000 mg/kg): statistically significant reduction
- spontaneous activity (number of movements of each animal on the plane) (mice; 1000 mg/kg): statistically significant reduction

SMILES: COc1cccc(C2(O)CCCCC2CN(C)C)c1 (stereo not shown) [tramadol]
- TD50 [3]: 253 mg/kg

SMILES: CC[C@@H](C(N)=O)N1CCCC1=O [levetiracetam]
- TD50 [3]: 2000 mg/kg

SMILES: O=C1CN2C(=O)CCC2N1 (racemic) [dimiracetam, 2,5-dioxohexahydro-1H-pyrrolo[1,2-a]imidazole]
- time after administration at which effect was statistically significant [5]: between 30 min and 4 h
- mechanical hyperalgesia (paw pressure test) ([5]; starting three days before oxaliplatin treatment and during it): significantly reduced mechanical hyperalgesia
- ddC-induced allodynia (von Frey mechanical threshold) (ddC-induced neuropathy [6]; 15-30 min after administration): fully reverted ddC-induced allodynia
- ddC-induced allodynia (von Frey mechanical threshold) (ddC-induced neuropathy [6]; 45 min after treatment): still statistically significant
- reversal of MIA-induced hyperalgesia (paw pressure test) [2, 11]: statistically significant effect
- reversal of MIA-induced hyperalgesia (paw pressure test) ([2]; 300 mg/kg, 60 min after administration): still statistically significant
- reversal of MIA-induced hyperalgesia (paw pressure test) ([2]; 300 mg/kg, between 15 and 45 min after administration): fully reverted MIA-induced hyperalgesia
- motor coordination (number of falls in 30 sec, rotarod) (rats motor coordination; 3000 mg/kg p.o., acute): does not alter rats motor coordination
- TD25 (dose causing 25% of fallen rats) (rats [4]): 6000 mg/kg
- effects on behavioral parameters (Irwin test) (rats [7]; 1000 mg/kg by subcutaneous route): did not show any effects
- effects on behavioral parameters (Irwin test) (rats [7]; 3000 mg/kg p.o.): did not show any effects
- curiosity (number of head plungings) (mice; 3000 mg/kg p.o.): does not significantly reduce
- spontaneous activity (number of movements of each animal on the plane) (mice; 3000 mg/kg p.o.): does not significantly reduce
- tolerability / signs of toxicity, single dose (Sprague Dawley rats [8]; iv): substantially well tolerated
- tolerability / signs of toxicity, single dose (Sprague Dawley rats [8]; po): substantially well tolerated
- mortality, symptomatology, normal behavior, repeated dose (Sprague Dawley rats [9]): did not produce any changes
- tolerability, repeated dose (Sprague Dawley rats [9]): well tolerated
- tolerability, repeated dose (Cynomolgus monkeys): well tolerated
- nootropic activity, dose-response [10]: tends to lower
